For the assay, the target named is MarA (Escherichia coli, UniProt P0ACH5). As to the kind of experiment: MarA-activated selective marker (ccdB) cell survival assay, Example 2. The class given is cell-based. Also on record: key: * indicates good inhibition of MarA; ** indicates very good inhibition of MarA. Conditions: inhibition of MarA: cell survival under conditions of MarA expression (ccdB under MarA-activated promoter). From the text:
In the absence of Mar A, the expression of the selective marker would be silent. For example, in the case of regulation of the cytotoxic gene ccdB, the gene would be silent and the cells would survive. Synthesis of MarA from an inducible plasmid in a suitable host would result in the activation of the MarA responsive activatable promoter and expression of the selective marker. In the case of ccdB, the gene would be expressed and result in cell death. Compounds that inhibit MarA would be identified as those that permit cell survival under conditions of MarA expression.
In the absence of MarA, the expression of the selective marker is silent and cells survive. Synthesis of MarA from an inducible plasmid in a bacterial or yeast cell leads to the activation of the inaA promoter, expression of ccdB, and subsequently results in cell death. Compounds that inhibit MarA are those that permit cell survival under conditions of MarA expression. In Table 4, * indicates good inhibition of MarA and ** indicates very good inhibition of MarA.

The structures appear in SMILES notation.

Sequence of MarA (P0ACH5 whole entry, looked up): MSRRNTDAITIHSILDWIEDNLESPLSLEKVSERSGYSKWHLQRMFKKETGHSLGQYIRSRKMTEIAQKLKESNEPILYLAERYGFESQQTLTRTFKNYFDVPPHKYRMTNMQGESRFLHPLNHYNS

Turning to `CCCCSc1nnc2c(n1)OC(c1ccc(OC)cc1OC)Nc1ccccc1-2` (centres unmarked) [H, 3-Butylsulfanyl-6-(2,4-dimeethoxy-phenyl)-6,7-dihydro-5-oxa-1,2,4,7-tetraaza-dibenzo[a,c]cycloheptene], the MarA inhibition class entry was “*”.

For `c1ccc(CSc2ncc(-c3nnnn3-c3ccccc3)c(-c3ccccc3)n2)cc1` [AY, 2-(benzylthio)-4-phenyl-5-(1-phenyl-1H-1,2,3,4-tetrazol-5-yl)pyrimidine], the MarA inhibition class result was “**”.

On to `CCOc1ccc(C2Nc3ccccc3-c3nnc(SC)nc3O2)cc1` (centres unmarked) [B, 6-(4-Ethoxy-phenyl)-3-methylsulfanyl-6,7-dihydro-5-oxa-1,2,4,7-tetraaza-dibenzo[a,c]cycloheptene], for which the MarA inhibition class result is listed as “*”.

For `N#Cc1c(-c2ccc3c(c2)OCO3)c(C#N)c2nc3ccccc3n2c1N` [AB, 1-Amino-3-benzo[1,3]dioxol-5-yl-benzo[4,5]imidazo[1,2-a]pyridine-2,4-dicarbonitrile], the MarA inhibition class entry is given as “**”.

Consider `COn1c(-c2ccc(C)cc2)nc2ncccc21` [BF, 1-methoxy-2-(4-methylphenyl)-1H-imidazo[4,5-b]pyridine], for which the MarA inhibition class result is “*”.
